Experimental data as given in patent publication US20240425496A1, “AZETIDINYL PYRIMIDINES AND USES THEREOF” (Aerie Pharmaceuticals, Inc., priority 2021, published 2024).

How the values were obtained:
TYK2 = TYK2 (Homo sapiens (Human), UniProt P29597); assay: JAK kinase assay (KINASE-GLO luminescent), TYK2 enzyme; assay type: biochemical; details: TYK2 enzyme 10 nM, Abl peptide substrate
Method: (§1) All compounds were initially prepared as 10 mM stocks in anhydrous dimethylsulfoxide (DMSO). […] Test compounds were then serially diluted 1:5 in DMSO for an 11-point concentration response and further diluted in the assay buffer bringing all compound concentrations to a final range of 100 μM to 10 μM in 2.5% DMSO. […] The reaction was initiated by the addition of 10 μL of 4× stock solution ATP (2 μM). Reactions were thoroughly mixed manually, covered, and allowed to incubate at room temperature for 75 min. Protein kinase activity was quantitated using Promega's KINASE-GLO™ luminescent Kinase Assay Kit according to the manufacturer's directions. ATP concentrations remaining in Test wells following the termination of the enzymatic reaction were compared against control wells containing equivalent amounts of DMSO containing no inhibitor (CTRL). […] Percent of Control (POC) values were determined for each concentration of compound tested according to the equation: […]
(§2) IC50 values were calculated using the following 4-parameter logistic curve-fitting algorithm:
(§3) Compounds were prepared in the exact same manner as described in the ROCK Kinase Assay with the exception to the substrate and enzyme. […] All other steps and solutions remain identical to the ROCK Kinase Assay above.

JAK1 = JAK1 (Homo sapiens (Human), UniProt P23458); assay: JAK kinase assay (KINASE-GLO luminescent), JAK1 enzyme; assay type: biochemical; details: JAK1 enzyme 10 nM, Abl peptide substrate
JAK1, sequence (P23458 whole entry, species assumed): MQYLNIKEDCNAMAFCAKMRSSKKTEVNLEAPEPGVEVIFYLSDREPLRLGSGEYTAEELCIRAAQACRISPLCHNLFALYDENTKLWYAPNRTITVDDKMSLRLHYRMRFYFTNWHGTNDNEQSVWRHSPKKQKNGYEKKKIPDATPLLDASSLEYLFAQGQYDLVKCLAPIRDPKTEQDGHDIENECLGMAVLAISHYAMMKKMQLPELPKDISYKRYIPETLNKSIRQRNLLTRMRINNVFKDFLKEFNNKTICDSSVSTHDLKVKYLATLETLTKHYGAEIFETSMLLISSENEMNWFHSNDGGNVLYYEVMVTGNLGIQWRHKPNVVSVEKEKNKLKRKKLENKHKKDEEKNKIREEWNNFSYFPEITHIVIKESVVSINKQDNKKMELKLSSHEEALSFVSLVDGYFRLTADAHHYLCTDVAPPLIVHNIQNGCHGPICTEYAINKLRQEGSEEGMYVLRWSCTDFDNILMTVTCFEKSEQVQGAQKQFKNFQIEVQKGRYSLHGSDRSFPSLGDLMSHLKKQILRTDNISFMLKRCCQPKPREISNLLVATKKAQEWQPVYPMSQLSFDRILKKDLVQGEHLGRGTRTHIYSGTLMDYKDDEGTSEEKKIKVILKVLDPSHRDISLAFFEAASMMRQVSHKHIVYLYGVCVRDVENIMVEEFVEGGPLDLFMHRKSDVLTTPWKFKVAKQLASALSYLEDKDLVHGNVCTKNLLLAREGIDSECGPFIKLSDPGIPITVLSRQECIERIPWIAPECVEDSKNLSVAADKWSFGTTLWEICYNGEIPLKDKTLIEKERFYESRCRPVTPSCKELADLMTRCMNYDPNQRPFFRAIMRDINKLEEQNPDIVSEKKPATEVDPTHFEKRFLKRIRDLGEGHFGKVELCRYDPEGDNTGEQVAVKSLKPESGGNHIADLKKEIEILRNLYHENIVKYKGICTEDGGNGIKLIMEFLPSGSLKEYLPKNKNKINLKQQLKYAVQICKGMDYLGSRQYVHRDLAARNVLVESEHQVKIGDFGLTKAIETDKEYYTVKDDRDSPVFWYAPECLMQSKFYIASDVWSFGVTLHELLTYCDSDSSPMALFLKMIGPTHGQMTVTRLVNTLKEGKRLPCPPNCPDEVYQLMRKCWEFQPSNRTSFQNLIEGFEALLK
Method: as §1, §2, §3

TYK2, sequence (P29597 whole entry, species assumed): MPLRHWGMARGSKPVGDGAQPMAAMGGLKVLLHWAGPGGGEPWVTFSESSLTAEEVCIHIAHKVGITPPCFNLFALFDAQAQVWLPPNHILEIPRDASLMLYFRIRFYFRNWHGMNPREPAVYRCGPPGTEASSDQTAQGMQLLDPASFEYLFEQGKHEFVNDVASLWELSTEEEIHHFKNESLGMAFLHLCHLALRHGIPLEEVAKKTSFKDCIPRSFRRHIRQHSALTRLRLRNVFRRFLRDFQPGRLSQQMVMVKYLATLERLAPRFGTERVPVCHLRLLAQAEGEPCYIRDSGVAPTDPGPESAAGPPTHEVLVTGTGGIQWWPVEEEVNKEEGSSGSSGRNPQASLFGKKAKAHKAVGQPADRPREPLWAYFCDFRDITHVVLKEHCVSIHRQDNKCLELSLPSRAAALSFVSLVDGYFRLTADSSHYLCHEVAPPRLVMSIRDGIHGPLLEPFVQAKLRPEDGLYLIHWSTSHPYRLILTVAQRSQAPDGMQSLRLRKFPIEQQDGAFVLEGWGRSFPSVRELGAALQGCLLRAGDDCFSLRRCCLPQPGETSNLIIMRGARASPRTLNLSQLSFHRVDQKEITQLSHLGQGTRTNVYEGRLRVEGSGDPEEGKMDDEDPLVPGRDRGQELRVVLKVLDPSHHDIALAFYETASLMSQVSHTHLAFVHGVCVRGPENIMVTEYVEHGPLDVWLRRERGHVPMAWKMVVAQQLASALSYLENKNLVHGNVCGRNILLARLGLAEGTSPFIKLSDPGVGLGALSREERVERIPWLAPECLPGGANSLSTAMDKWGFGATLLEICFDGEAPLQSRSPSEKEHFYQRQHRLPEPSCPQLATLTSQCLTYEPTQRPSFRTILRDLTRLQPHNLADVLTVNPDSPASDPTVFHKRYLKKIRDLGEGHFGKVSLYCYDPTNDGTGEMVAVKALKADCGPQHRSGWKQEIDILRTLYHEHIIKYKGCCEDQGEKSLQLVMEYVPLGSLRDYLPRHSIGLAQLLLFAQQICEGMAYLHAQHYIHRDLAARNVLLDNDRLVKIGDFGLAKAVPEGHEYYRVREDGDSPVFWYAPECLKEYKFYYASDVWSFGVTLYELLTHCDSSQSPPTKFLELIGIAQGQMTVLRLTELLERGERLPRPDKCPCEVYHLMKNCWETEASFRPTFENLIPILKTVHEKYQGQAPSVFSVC

| Compound | IC50 (TYK2) [nM] | IC50 (JAK1) [nM] |
| --- | --- | --- |
| Cc1cc(Nc2ncc(C)c(N3CC(CC#N)(N4CCN(C)CC4)C3)n2)sn1 [E5, 2-(1-(5-methyl-2-((3-methylisothiazol-5-yl)amino)pyrimidin-4-yl)-3-(4-methyl-piperazin-1-yl)azetidin-3-yl)acetonitrile] | < 10 |  |
| Cc1cc(Nc2ncc(C)c(N3CC(CC#N)(N4CCCCC4)C3)n2)sn1 [E10] |  | < 10 |
| Cc1cc(Nc2ncc(C)c(N3CC(CC#N)(N4CC5CC(C5)C4)C3)n2)sn1 [E19] | < 10 | < 10 |
| COc1cnc(Nc2cc(C)ns2)nc1N1CC(CC#N)(N2CCCCC2)C1 [E24] | < 50 | < 50 |
| Cc1cc(Nc2ncc(C)c(N3CC(CC#N)(N4CCC5(CC4)CN(C)C5)C3)n2)sn1 [E28] | < 50 | < 50 |
| Cc1cc(Nc2ncc(C)c(N3CC(CC#N)(N4CC5CCC(C4)N5C)C3)n2)sn1 [E30] | < 10 | < 50 |
| Cc1cc(Nc2ncc(C)c(N3CC(CC#N)(N4CC5CC(C4)C5(F)F)C3)n2)sn1 [E31] | < 10 | < 10 |
| Cc1cc(Nc2ncc(C)c(N3CC(CC#N)(N4CCCCCC4)C3)n2)sn1 [E33] | < 10 | < 10 |
| Cc1cc(Nc2ncc(C)c(N3CC(CC#N)(N4C[C@@H](C)N(C)[C@@H](C)C4)C3)n2)sn1 [E34] | < 10 | < 50 |
| Cc1cc(Nc2ncc(C)c(N3CC(CC#N)(N4C[C@@H](C)N(C)[C@H](C)C4)C3)n2)sn1 [E35] | < 10 | < 50 |
| Cc1cc(Nc2ncc(C)c(N3CC(CC#N)(N4CCN(C)C(C)C4)C3)n2)sn1 (stereo not shown) [E36] | < 10 | < 10 |
| Cc1cc(Nc2ncc(C)c(N3CC(CC#N)(N(C)C4CN(C)C4)C3)n2)sn1 [E37] | < 50 | < 50 |
| Cc1cc(Nc2ncc(C)c(N3CC(CC#N)(N4CCN(C)C5(CC5)C4)C3)n2)sn1 [E38] | < 10 | < 10 |
| Cc1cc(Nc2ncc(C)c(N3CC(CC#N)(N4CCC5(CC4)CC5)C3)n2)sn1 [E39] | < 10 | < 10 |
| Cc1cc(Nc2ncc(C)c(N3CC(CC#N)(N4CCC(C5CC5(F)F)CC4)C3)n2)sn1 (stereo not shown) [E40] | < 10 | < 10 |
| Cc1cc(Nc2ncc(C)c(N3CC(CC#N)(N4CCCC5(COC5)C4)C3)n2)sn1 [E41] | < 10 | < 10 |
| Cc1cc(Nc2ncc(C)c(N3CC(CC#N)(N4CC5(CN(C)C5)C4)C3)n2)sn1 [E42] | < 1000 | < 1000 |

| Compound | IC50 (TYK2) [nM] | IC50 (JAK1) [nM] |
| --- | --- | --- |
| Cc1cc(Nc2ncc(C)c(N3CC(CC#N)(N4CC(N(C)C)C4)C3)n2)sn1 [E43] | < 100 | < 150 |
| Cc1cc(Nc2ncc(C)c(N3CC(CC#N)(N4C[C@H](C)N(C)[C@@H](C)C4)C3)n2)sn1 [E44] | < 20 | < 50 |
| Cc1cc(Nc2nccc(N3CC(CC#N)(N4CCCCC4)C3)n2)sn1 [E45] | < 20 | < 200 |
| Cc1cc(Nc2ncc(C)c(N3CC(CC#N)(N4CCN(C)C5(COC5)C4)C3)n2)sn1 [E46] | < 10 | < 20 |
| Cc1cc(Nc2ncc(C)c(N3CC(CC#N)(N4CCC(CS(C)(=O)=O)CC4)C3)n2)sn1 [E47] | < 10 | < 10 |
| Cc1cc(Nc2ncc(C)c(N3CC(CC#N)(N4CCN(CC5CC5)CC4)C3)n2)sn1 [E48] | < 10 | < 10 |
| Cc1cc(Nc2ncc(C)c(N3CC(CC#N)(N4C5CCCC4C5)C3)n2)sn1 [E49] | < 20 | < 30 |
| Cc1cc(Nc2ncc(C)c(N3CC(CC#N)(N4C5CC4CN(C)C5)C3)n2)sn1 [E50] | < 400 | < 250 |
| Cc1cc(Nc2ncc(C)c(N3CC(CC#N)(N4CCN(CC(C)C)CC4)C3)n2)sn1 [E51] | < 20 | < 15 |
| Cc1cc(Nc2ncc(C)c(N3CC(CC#N)(N4CCN(C)[C@@H](C)C4)C3)n2)sn1 [E52A] | < 10 | < 20 |
| Cc1cc(Nc2ncc(C)c(N3CC(CC#N)(N4CCN5C[C@@H](F)C[C@H]5C4)C3)n2)sn1 [E52B] | < 10 | < 10 |
| Cc1cc(Nc2ncc(C)c(N3CC(CC#N)(N4CCN(CC(C)(C)F)CC4)C3)n2)sn1 [E52D] | < 20 | < 10 |
| Cc1cc(Nc2ncc(C)c(N3CC(CC#N)(N4CCC5C(CC4)C5(F)F)C3)n2)sn1 (stereo not shown) [E52E] | < 10 | < 10 |
| Cc1cc(Nc2ncc(C)c(N3CC(CC#N)(N4CC5CC(C4)N5C)C3)n2)sn1 [E52F] | < 50 | < 100 |
| Cc1cc(Nc2ncc(C)c(N3CC(CC#N)(N4CCCN(C)CC4)C3)n2)sn1 [E52G] | < 50 | < 100 |
| Cc1cc(Nc2ncc(C)c(N3CC(CC#N)(NC4CN(C)C4)C3)n2)sn1 [E52H] | < 100 | < 100 |
| CCN1CCN(C2(CC#N)CN(c3nc(Nc4cc(C)ns4)ncc3C)C2)CC1 [E52] | < 10 | < 10 |

More lines, now with the values ahead:

| IC50 (TYK2) [nM] | IC50 (JAK1) [nM] | Compound |
| --- | --- | --- |
| < 10 |  | Cc1cc(Nc2ncc(C)c(N3CC(CC#N)C3)n2)sn1 [E6] |
| < 10 | < 10 | Cc1cc(Nc2ncc(C)c(N3CC(CC#N)(N4CCOCC4)C3)n2)sn1 [E9] |
| < 10 | < 10 | Cc1cc(Nc2ncc(C)c(N3CC(CC#N)(N4CC(C5CC5)C4)C3)n2)sn1 [E11] |
| < 10 | < 10 | Cc1cc(Nc2ncc(C)c(N3CC(CC#N)(N4CCC4)C3)n2)sn1 [E12] |
| < 10 | < 10 | Cc1cc(Nc2ncc(C)c(N3CC(CC#N)(N(C)C4CC4)C3)n2)sn1 [E13] |
| < 10 | < 10 | Cc1cc(Nc2ncc(C)c(N3CC(CC#N)(N4CCC(CCF)CC4)C3)n2)sn1 [E14] |
| < 10 | < 10 | Cc1cc(Nc2ncc(C)c(N3CC(CC#N)(N4CCCC(C)C4)C3)n2)sn1 (stereo not shown) [E15] |
| < 5 | < 5 | Cc1cc(Nc2ncc(C)c(N3CC(CC#N)(N4CC(C)CC(C)C4)C3)n2)sn1 (stereo not shown) [E16] |
| < 10 | < 10 | Cc1cc(Nc2ncc(C)c(N3CC(CC#N)(N4CCC(F)CC4)C3)n2)sn1 [E17] |
| < 5 | < 5 | Cc1cnc(Nc2cc(C3CC3)ns2)nc1N1CC(CC#N)(N2CCN(C)CC2)C1 [E18] |
| < 10 | < 10 | Cc1cc(Nc2ncc(C)c(N3CC(CC#N)(N4CCC(CC(F)F)CC4)C3)n2)sn1 [E20] |
| < 10 | < 10 | Cc1cc(Nc2ncc(C)c(N3CC(CC#N)(N4CCCC5(CC5)C4)C3)n2)sn1 [E21] |
| < 10 | < 10 | Cc1cc(Nc2ncc(C)c(N3CC(CC#N)(N4CCC5(CC4)CC5(F)F)C3)n2)sn1 [E22] |
| < 10 | < 10 | Cc1cc(Nc2ncc(C)c(N3CC(CC#N)(N4CC(C)CC5(CC5)C4)C3)n2)sn1 (stereo not shown) [E23] |
| < 10 | < 10 | Cc1cc(Nc2ncc(Cl)c(N3CC(CC#N)(N4CCCCC4)C3)n2)sn1 [E25] |
| < 10 | < 10 | Cc1cc(Nc2ncc(C)c(N3CC(CC#N)(N4CCC5(CC4)COC5)C3)n2)sn1 [E26] |
| < 10 | < 10 | Cc1cc(Nc2ncc(C)c(N3CC(CC#N)(N4CCCC5(C4)CC5(F)F)C3)n2)sn1 (stereo not shown) [E27] |
| < 10 | < 10 | Cc1cc(Nc2ncc(C)c(N3CC(CC#N)(N4CC5C(C4)C5(F)F)C3)n2)sn1 (stereo not shown) [E29] |
| < 10 | < 50 | Cc1cc(Nc2ncc(C3CC3)c(N3CC(CC#N)(N4CCCCC4)C3)n2)sn1 [E32] |
